# Test results: patent US8993282B2, “Carotenoid fermentation method” (JX Nippon Oil & Energy Corporation, priority 2008, dated 2015)
# System: Paracoccus carotinifaciens strain E-396 (FERM BP-4283)
# Experiment: Amino acid supplementation (20 amino acids), test tube culture, carotenoid by HPLC and growth by OD610
# Type: cell-based
# Details: amino acid at 1.0 g/L
# Procedure: In the examples, carotenoids were quantified by high performance liquid chromatography (HPLC) as follows.
# Two columns of Wakosil-II 5 SIL-100 (φ4.6×250 mm) (Wako Pure Chemical Industries, Ltd., Japan) were connected to each other for use as a column. Elution was performed by flowing an n-hexane-tetrahydrofuran-methanol mixed solution (40:20:1), which was a mobile phase, at a flow rate of 1.0 mL/minute at a constant temperature around room temperature. The measurement was performed as follows. Samples were each dissolved in tetrahydrofuran and then diluted 100-fold with the mobile phase. Each dilution was injected in a volume of 20 μL. The column eluate was detected at a wavelength of 470 nm. As a reference for quantification, astaxanthin (SIGMA, Cat. No. A9335) was used. The astaxanthin concentration of the reference solution was determined using the following equation after measuring the absorbance (A) of the reference solution at 477 nm and the area percentage % (B) of the astaxanthin peak at the time of HPLC analysis under the above conditions. Astaxanthin concentration (mg/L)=A/2150×B×100
# A medium of the following composition (sucrose 30 g/L, corn steep liquor 30 g/L, potassium dihydrogenphosphate 1.5 g/L, disodium hydrogenphosphate 12-hydrate 3.8 g/L, calcium chloride dihydrate 5.0 g/L, magnesium sulfate 7-hydrate 0.7 g/L, iron sulfate 7-hydrate 0.3 g/L, pH 7.2) was dispensed in 8 ml volumes into cotton-plugged test tubes having an inner diameter of 18 mm and sterilized in an autoclave at 121° C. for 15 minutes to prepare a test tube medium for seed culture.
# Next, a medium of the following composition (glucose 30 g/L, filtered corn steep liquor 5 g/L, ammonium sulfate 1.5 g/L, potassium dihydrogenphosphate 1.5 g/L, disodium hydrogenphosphate 12-hydrate 3.8 g/L, calcium chloride dihydrate 5.0 g/L, magnesium sulfate 7-hydrate 0.7 g/L, iron sulfate 7-hydrate 0.6 g/L, ester-based defoaming agent 0.2 g/L) was dispensed in 8 ml volumes into cotton-plugged test tubes having an inner diameter of 18 mm (21 tubes in total).
# The mediums in these test tubes were supplemented with 20 amino acids, glycine, alanine, valine, leucine, isoleucine, serine, threonine, aspartic acid, glutamic acid, asparagine, glutamine, lysine, arginine, cysteine, methionine, phenylalanine, tyrosine, tryptophan, histidine and proline, respectively, at 1.0 g/L. One of the tubes was supplemented with no amino acid as a control. Finally, the mediums in the tubes were adjusted to pH 7.1 with aqueous sodium hydroxide or aqueous sulfuric acid and then sterilized in an autoclave at 121° C. for 20 minutes.
# Paracoccus carotinifaciens strain E-396 (FERM BP-4283) was inoculated into the test tube medium for seed culture and then cultured with shaking at 28° C. for 2 days at 300 spm. The resulting culture solution was then inoculated in 0.1 ml volumes into the 21 test tube media, respectively, and cultured with shaking at 28° C. for 4 days at 300 spm.
# Each culture solution was measured for its carotenoid concentration by HPLC and microbial cell growth was determined by OD610 (absorbance at 610 nm).
# [1] = culture solution, 28° C. for 4 days
smiles,measurement,setting,value
"N[C@@H](CCC(=O)O)C(=O)O [Glutamic acid, glutamic acid]",effect on the production of carotenoid pigments,versus tube with no amino acid,stimulatory effect
same,Astaxanthin,[1],10.7 mg/L
same,Total carotenoid,[1],28.2 mg/L
same,OD610,"microbial cell growth, absorbance at 610 nm, 28° C. for 4 days",17
